Source: the NIST ThermoML archive (doi:10.1021/je100143k)
± gives the expanded uncertainty stated by the source.

Conditions: Liquid, Ebulliometric method (Recirculating still)

Row | Structure (SMILES) | vapor or sublimation pressure (263.15 K) [kPa] | vapor or sublimation pressure (268.15 K) [kPa] | vapor or sublimation pressure (278.15 K) [kPa] | vapor or sublimation pressure (288.15 K) [kPa]
1 | CCF [fluoroethane] | 311 ± 10 | 372 ± 10 | 517 ± 10 | 700 ± 10
2 | FC(F)C(F)F [1,1,2,2-tetrafluoroethane] | 155 ± 10 | 189 ± 10 | 276 ± 10 | 386 ± 10
